According to article PMC6277767, “Broad and Region-Specific Impacts of the Synthetic Cannabinoid CP 55,940 in Adolescent and Adult Female Mouse Brains” (Frontiers in Molecular Neuroscience, 2018):

Test system: CD1 female mouse brain lipidome
Assay: Brain-region lipid levels (HPLC/MS/MS lipidomics) 2 h after single i.p. 3 mg/kg CP 55,940 vs vehicle
Format: in vivo
Settings: hippocampus
Experimental: The Bloomington Institutional Animal Care and Use Committee of Indiana University reviewed and approved the animal procedures. Female mice from the CD1 strain were utilized to match our study examining THC’s effects on the brain lipidome ([Leishman et al., 2018]). Mice were given a single i.p. injection of either 3 mg/kg CP or 1:1:18 cremophor:ethanol:saline vehicle (please refer to the section “3 mg/kg CP Is Relevant for Synthetic Cannabinoid Abuse and Has Stronger Effects on the Female Mouse Brain Lipidome During Adolescence” for a justification of dose and use of female mice). Three different age groups were given injections: PND 35 and PND 50 adolescents, and adult mice (PND 113). At least eight mice in each age group received CP and at least eight received vehicle. Matching the THC study time course ([Leishman et al., 2018]), mice were sacrificed via rapid decapitation 2 h after injection. Brains were immediately removed and flash-frozen in liquid nitrogen, and then stored at -80°C until dissections were performed. Brains were dissected on an ice-cold dissection plate into the following regions: STR, HIPP, CER, THAL, CTX, HYP, MID, and STEM. These abbreviations for these brain areas will be used exclusively when discussing the results generated by these specific dissections. Each dissected area was immediately placed in liquid nitrogen and then stored at -80°C until used for lipid extraction.
Tissue extracts were performed as previously described ([Bradshaw et al., 2006]; [Stuart et al., 2013]; [Raboune et al., 2014]; [Leishman et al., 2016a],[b], [2017], [2018]). First, samples were shock frozen in liquid nitrogen, weighed, and transferred to a centrifuge tube. The mass of the largest sample was multiplied by 50 to determine how many milliliters of HPLC-grade methanol (Fisher, Fair Lawn, NJ, United States) to add. Then, samples were spiked with 500 pmol deuterium-labeled NAGly (d8NAGly; Cayman Chemical, Ann Arbor, MI, United States). Samples were placed on ice in darkness for 2 h then individually homogenized and centrifuged at 19,000 × g for 20 min at 20°C. Supernatants were diluted with HPLC water (purified in house) to make a solution of 75% water, 25% supernatant. Lipids were partially purified on C18 solid phase extraction columns (Agilent, Palo Alto, CA, United States). A series of four elutions with 1.5 mL of 60%, 75%, 85%, and 100% methanol were collected ([Stuart et al., 2013]; [Leishman et al., 2016a],[b], [2018]).
As previously described ([Bradshaw et al., 2006]; [Tan et al., 2006]; [Smoum et al., 2010]; [Stuart et al., 2013]; [Tortoriello et al., 2013]; [Raboune et al., 2014]; [Leishman et al., 2016a],[b], [2017], [2018]), samples were analyzed using an Applied Biosystems API 3000 triple quadrupole mass spectrometer with electrospray ionization (Foster City, CA, United States). Using an Agilent XDB-C18 reversed phase analytical column and optimized mobile phase gradients, 20 μL from each elution were chromatographed. Two Shimadzu 10ADvp pumps (Columbia, MD, United States) provided the pressure for gradient elution. Mobile phase A: 20% methanol, 80% water (v/v) and 1 mM ammonium acetate (Sigma, St. Louis, MO, United States). Mobile phase B: 100% methanol, 1 mM ammonium acetate. Every method run began with 0% mobile phase B, reached 100% mobile phase B flowing at 0.2 mL/min, and gradually returned to 0% mobile phase B.
This screening library will be referred to as the lipidome when discussing data from this study. HPLC/MS/MS data were analyzed using Analyst software (Applied Biosystems) ([Bradshaw et al., 2006]; [Tan et al., 2006]; [Stuart et al., 2013]; [Tortoriello et al., 2013]; [Raboune et al., 2014]; [Leishman et al., 2016a],[b], [2017], [2018]). Chromatograms (Supplementary Figure 3) were generated by determining the retention time of analytes from the analytical column with a [M-1] or [M+1] parent peak and a fragmentation peak corresponding to the programmed values. […]

[1] = PND 50, 3 mg/kg CP 55,940 vs Veh
[2] = PND 50 female mice, 3mg/kg CP 55,940, mean

SMILES: CCCCCCC(C)(C)c1ccc([C@@H]2C[C@H](O)CC[C@H]2CCCO)c(O)c1 [CP 55,940]
- Linoleic acid, Magnitude (x Veh level) [1]: 0.73 x Veh level
- N-arachidonoyl alanine Magnitude (x Veh level) [1]: 0.71 x Veh level
- N-arachidonoyl alanine, Direction (relative to Veh) [1]: ↓
- N-arachidonoyl ethanolamine, Direction (relative to Veh) [1]: ↓
- N-arachidonoyl ethanolamine, Magnitude (x Veh level) [1]: 0.64 x Veh level
- N-arachidonoyl glycine Direction (relative to Veh) [1]: ↓
- N-arachidonoyl glycine Magnitude (x Veh level) [1]: 0.52 x Veh level
- N-arachidonoyl serine Direction (relative to Veh) [1]: ↓
- N-arachidonoyl serine Magnitude (x Veh level) [1]: 0.51 x Veh level
- N-arachidonoyl taurine Direction (relative to Veh) [1]: ↓
- N-arachidonoyl taurine Magnitude (x Veh level) [1]: 0.69 x Veh level
- N-arachidonoyl tyrosine, Direction (relative to Veh) [1]: ↑
- N-arachidonoyl tyrosine, Magnitude (x Veh level) [1]: 1.38 x Veh level
- N-docosahexaenoyl ethanolamine, Direction (relative to Veh) [1]: ↓
- N-docosahexaenoyl ethanolamine, Magnitude (x Veh level) [1]: 0.73 x Veh level
- N-linoleoyl ethanolamine, Direction (relative to Veh) [1]: ↓
- N-linoleoyl ethanolamine, Magnitude (x Veh level) [1]: 0.65 x Veh level
- N-linoleoyl serine Direction (relative to Veh) [1]: ↑
- N-linoleoyl serine Magnitude (x Veh level) [1]: 1.32 x Veh level
- N-oleoyl leucine Direction (relative to Veh) [1]: ↓
- N-oleoyl leucine Magnitude (x Veh level) [1]: 0.77 x Veh level
- N-oleoyl serine, Direction (relative to Veh) [1]: ↑
- N-oleoyl serine, Magnitude (x Veh level) [1]: 1.27 x Veh level
- PGE2 Direction (relative to Veh) [1]: ↑
- PGE2 Magnitude (x Veh level) [1]: 1.15 x Veh level
- PGF2α Direction (relative to Veh) [1]: ↑
- PGF2α Magnitude (x Veh level) [1]: 1.22 x Veh level
- 2-arachidonoyl glycerol level [2]: 2.77E-09
- 2-linoleoyl glycerol level [2]: 1.81E-10
- 2-oleoyl glycerol level [2]: 1.71E-09
- 2-palmitoyl glycerol level [2]: 2.49E-10
- 6-ketoPGF1α level [2]: 6.15E-11
- 11-OH-THC level [2]: BDL
- 11-nor-9-carboxyTHC level [2]: BDL
- Arachidonic acid level [2]: 1.73E-09
- Cannabidiol level [2]: BDL
- Linoleic acid level [2]: 5.21E-10
- N-arachidonoyl GABA level [2]: 2.39E-11
- N-arachidonoyl alanine level [2]: 1.94E-12
- N-arachidonoyl dopamine level [2]: BDL
- N-arachidonoyl ethanolamine level [2]: 2.58E-11
- N-arachidonoyl glycine level [2]: 4.78E-13
- N-arachidonoyl proline level [2]: BDL
- N-arachidonoyl serine level [2]: 5.36E-13
- N-arachidonoyl taurine level [2]: 8.7E-11
- N-arachidonoyl tryptophan level [2]: BDL
- N-arachidonoyl tyrosine level [2]: 2.3E-12
- N-docosahexaenoyl ethanolamine level [2]: 1.92E-11
- N-docosahexaenoyl glycine level [2]: 5.66E-14
- N-docosahexaenoyl methionine level [2]: BDL
- N-docosahexaenoyl proline level [2]: BDL
- N-docosahexaenoyl tryptophan level [2]: BDL
- N-docosahexaenoyl valine level [2]: BDL
- N-linoleoyl ethanolamine level [2]: 2.31E-11
- N-linoleoyl glycine level [2]: 8.35E-14
- N-linoleoyl methionine level [2]: BDL
- N-linoleoyl proline level [2]: BDL
- N-linoleoyl serine level [2]: 7.96E-11
- N-linoleoyl tryptophan level [2]: BDL
- N-linoleoyl valine level [2]: BDL
- N-nervonoyl valine level [2]: BDL
- N-oleoyl GABA level [2]: 1.53E-11
- N-oleoyl alanine level [2]: 2.17E-12
- N-oleoyl dopamine level [2]: BDL
- N-oleoyl ethanolamine level [2]: 8.7E-11
- N-oleoyl glycine level [2]: 1.25E-13
- N-oleoyl leucine level [2]: 7.72E-13
- N-oleoyl phenylalanine level [2]: 1.52E-13
- N-oleoyl proline level [2]: BDL
- N-oleoyl serine level [2]: 4.19E-10
- N-oleoyl tryptophan level [2]: BDL
- N-palmitoyl GABA level [2]: 1.72E-11
- N-palmitoyl alanine level [2]: 2.35E-12
- N-palmitoyl ethanolamine level [2]: 2.9E-11
- N-palmitoyl glycine level [2]: 5.47E-12
- N-palmitoyl leucine level [2]: 1.17E-12
- N-palmitoyl methionine level [2]: 9.9E-12
- N-palmitoyl phenylalanine level [2]: 9.31E-14
- N-palmitoyl proline level [2]: BDL
- N-palmitoyl serine level [2]: 1.51E-11
- N-palmitoyl tryptophan level [2]: BDL
- N-palmitoyl tyrosine level [2]: 9.92E-13
- N-stearoyl GABA level [2]: 1.36E-11
- N-stearoyl alanine level [2]: 2.21E-12
- N-stearoyl ethanolamine level [2]: 1.21E-11
- N-stearoyl glycine level [2]: 2.09E-12
- N-stearoyl leucine level [2]: 1.45E-12
- N-stearoyl phenylalanine level [2]: 9.22E-14
- N-stearoyl proline level [2]: BDL
- N-stearoyl serine level [2]: 3.94E-11
- N-stearoyl tryptophan level [2]: BDL
- Oleic acid level [2]: 5.52E-10
- PGE2 level [2]: 5.28E-10
- PGF2α level [2]: 3.99E-10
- PhosphoLEA level [2]: 9.47E-12
- THC level [2]: BDL
- 2-arachidonoyl glycerol level, Mean (adult, 3 mg/kg CP 55,940): 2.63E-09
- 2-linoleoyl glycerol level, Mean (adult, 3 mg/kg CP 55,940): 1.64E-10
- 2-linoleoyl glycerol: Direction (relative to Veh) (adult, 3 mg/kg CP 55,940): ↓
- 2-linoleoyl glycerol: Magnitude (x Veh level) (adult, 3 mg/kg CP 55,940): 0.74 x Veh level
- 2-oleoyl glycerol level, Mean (adult, 3 mg/kg CP 55,940): 1.58E-09
- 2-palmitoyl glycerol level, Mean (adult, 3 mg/kg CP 55,940): 1.43E-10
